Where a name gives a salt, the structure may show the parent alone.
Key:
5-HT1A receptors = target: T1, 5-HT1A receptors (Rattus norvegicus, UniProt P19327); assay: Affinity to the 5-HT1A receptor: [3H]-8-OH-DPAT binding in hippocampus membranes; conditions: displacement of [3H]-8-OH-DPAT, hippocampus membranes of rats; Ki calculated from IC50
T1 construct: 5-HT1A receptors in hippocampus membranes of rats; from tissue; host or cells: rat hippocampus membranes
T1 sequence (P19327 1-422): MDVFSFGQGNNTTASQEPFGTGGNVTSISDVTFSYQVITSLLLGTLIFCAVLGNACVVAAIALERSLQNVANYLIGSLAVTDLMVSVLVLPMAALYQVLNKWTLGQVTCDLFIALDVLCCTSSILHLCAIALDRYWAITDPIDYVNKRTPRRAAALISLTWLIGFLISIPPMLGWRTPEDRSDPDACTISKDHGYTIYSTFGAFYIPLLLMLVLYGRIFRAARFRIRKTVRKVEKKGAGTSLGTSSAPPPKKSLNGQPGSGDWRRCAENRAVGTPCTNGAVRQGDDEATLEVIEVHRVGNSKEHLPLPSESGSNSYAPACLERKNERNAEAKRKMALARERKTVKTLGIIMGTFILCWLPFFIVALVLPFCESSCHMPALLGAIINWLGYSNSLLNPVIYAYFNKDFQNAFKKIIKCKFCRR
Protocol: 1. Affinity to the 5-HT1A Receptor
(Dompert et al., Naunyn-Schmiedeberg's Arch. Pharmacol. 1985, 328, 467-470).
In this test, binding of [^3H]-8-OH-DPAT to 5-HT1A receptors in hippocampus membranes of rats is measured.
In the binding test, IC50 values are determined which state at which concentration of test substance 50% of bound radio ligand is displaced. Taking into account the dissociation constants and the concentration of radio ligand, this is used to calculate the inhibition constant Ki.

## O=C1c2ccccc2S(=O)(=O)N1CCCCNC[C@H]1CCc2cc(O)ccc2O1 (as salt: hydrochloride) [Example 2, 2-[4-({[(2R)-6-Hydroxy-3,4-dihydro-2H-chromen-2-yl]methyl}amino)butyl]-1,2-benzisothiazol-3(2H)-one 1,1-dioxide hydrochloride]
other
  melting point: 220 to 222 °C

## O=C1c2ccccc2S(=O)(=O)N1CCCCNC[C@H]1CCc2cc(O)ccc2O1 [Example 2, 2-[4-({[(2R)-6-Hydroxy-3,4-dihydro-2H-chromen-2-yl]methyl}amino)butyl]-1,2-benzisothiazol-3(2H)-one 1,1-dioxide hydrochloride]
5-HT1A receptors
  Ki: 1.93 nM

## COc1cc2c(cc1O)O[C@@H](CNCCCCN1C(=O)c3ccccc3S1(=O)=O)CC2 [Example 1, (R)-(−)-2-(4-{[(7-Hydroxy-6-methoxy-3,4-dihydro-2H-chromen-2-yl)methyl]-amino}butyl)-1,2-benzisothiazol-3(2H)-one 1,1-dioxide hydrochloride]
5-HT1A receptors
  Ki: 3.15 nM

Reference: patent publication US6919360B2, “Benzisothiazolyl-substituted aminomethyl chromanes for treating diseases of the central nervous system” (Bayer HealthCare AG, priority 2001, dated 2005)
